{"source": "patent US6864272B2", "about": "“Method and composition for treating cancer using cellular organelle crystallizing agents” (priority 2000, dated 2005)", "key": {"9 L gliosarcoma": {"test_system": "9 L gliosarcoma", "assay": "In vivo antitumor activity of tetrazolium salts in polylactic acid polymer, established flank tumor in rats (Example 3)", "conditions": "2.5 mg/kg in polylactic acid polymer implanted in 14 day established tumor, tumor volume on day 60, n=6"}, "SDH": {"test_system": "SDH", "assay": "Inhibition of crystal formation on cellular structures by prior incubation with SDH inhibitor", "type": "cell-based", "conditions": "prior incubation of cells with the SDH inhibitor, crystals of Examples 4 through 7", "description": "The crystallization of organelles, such as centrosome, mitochondrion, or nuclear envelopes (or endoplasmic retulum), effectively stopped cell proliferation and induced cell death as well. This kind of cell death, which is different form either necrosis or appoptosis, is called cellular-organelle-crystallizatin-induced-death, […]. COCID also refers to the cell death, induced by the crystallization of cytoskeletons as well as the crystallization of the sub-units of cellular organelles and cytoskeletons. COCID further refers to the cell death, induced by the crystallization of proteins and small molecules located on cytoskeletons or the sub-units of cellular organelles and ccytoskeletons.\n[…]"}}, "data": [{"smiles": "c1ccc(-c2nn(-c3ccccc3)[n+](-c3ccccc3)n2)cc1", "note": "[TR, 2,3,5-triphenyltetrazolium chloride]", "values": [{"measurement": "Tumor size", "setting": "9 L gliosarcoma", "result": "44 ± 5.3", "unit": "cm^3"}]}, {"smiles": "O=C(O)CC[N+](=O)[O-]", "note": "[nitropropionic acid]", "values": [{"measurement": "inhibition of the crystals on the cellular structures", "setting": "SDH", "result": "could be inhibited"}]}, {"smiles": "c1ccc(-c2nn(-c3ccccc3)[n+](-c3cccc4ccccc34)n2)cc1", "note": "[TV, 2,5-diphenyl-3-[1-naphthyl]-2H-tetrazolium chloride]", "values": [{"measurement": "Tumor size", "setting": "9 L gliosarcoma", "result": "21 ± 2.3", "unit": "cm^3"}]}]}
